{"source": "patent US10145848B2", "about": "“Small-molecule hydrophobic tagging of fusion proteins and induced degradation of same” (YALE UNIVERSITY, priority 2010, dated 2018)", "key": {"[1]": {"target": "T1, HA-EGFP-HaloTag fusion protein (Rhodococcus rhodochrous, UniProt P0A3G2, C176G/H272F/K175M/Y273L)", "T1 construct": "The HaloTag protein was obtained from pHT2 vector (Promega); expressed in transfected cells", "test": "Immunoblotting of HA-EGFP-HaloTag in Flp-In 293 cells", "assay_type": "cell-based", "protocol": "Flp-In 293 cells expressing HA-EGFP-HaloTag were treated with indicated concentrations of HyT13 for 24 hours. The lysates were probed with anti-HA and anti-β-actin antibodies, with β-actin serving as a loading control. Shown is quantification of three separate experiments, with error bars representing SEM.\nFlp-In 293 cells expressing HA-EGFP-HaloTag cells were treated for the indicated times with 1 μM HyT13 and the lysates were probed with anti-HA and anti-β-actin antibodies. The rightmost sample was treated with HyT13 for 24 hours, after which HyT13-free media was provided for 24 hours. Shown is quantification of three separate experiments, with error bars representing SEM.\nThe indicated cells were washed twice with cold PBS and the cells were lysed in lysis buffer (1×PBS, 1% NP-40, 1 mM EDTA, 40 mM HEPES) with protease inhibitors. The lysates were cleared by centrifugation at 10,000 g for 5 min. The total protein concentration was determined by Bradford assay and 50 μg of protein was loaded onto an 8% Bis-Tris gel. To solubilize polyubiquitinated and aggregated proteins upon proteasome inhibition^42 samples generated for FIG. 12d were lysed with a SDS lysis buffer (1×PBS, 1% NP-40, 1% SDS, 1% sodium deoxycholate, 1 mM EDTA, 40 mM HEPES) with protease inhibitors. The blots were processed by standard procedures with indicated antibodies, and the band intensities were quantified by ImageJ.\nAs the luciferase assay relied on the loss-of-activity of the luciferase-HaloTag fusion protein, we wanted to determine whether the decrease in luciferase activity resulted from the degradation of the entire fusion protein or perhaps simply inhibition of luciferase activity. We generated a stable Flp-In 293 cell line with a single integration site containing HA-EGFP-HaloTag fusion protein, and employed this cell line to perform kinetic studies with HyT13. […] Consistent with our previous observations, treatment of these cells with 1 μM of HyT13 for 24 hours reduced the mean fluorescence intensity of cells almost 7-fold. Together, these findings provide the first experimental evidence that hydrophobic tagging represents a viable strategy for the control of protein levels."}, "[2]": {"target": "T2, HA-HaloTag(D106A)-H-RasG12V (UniProt P01112+P0A3G2, C176G/D106A/G12V/H272F/K175M/Y273L)", "T2 construct": "The HaloTag protein was obtained from pHT2 vector (Promega); H-Ras carrying G12V (fusion partner, same polypeptide); expressed in transfected cells; host or cells: NIH-3T3, retroviral infection (pEYK3.1)", "test": "Immunoblotting of HA-HaloTag(D106A)-H-RasG12V in NIH-3T3 cells", "assay_type": "cell-based", "details": "1 μM, 24 hours", "protocol": "(a) NIH-3T3 cells were retrovirally infected with a construct expressing either HA-HaloTag-HRas(G12V) or HA-HaloTag(D106A)-HRas(G12V). The cells were then treated with vehicle or 1 μM HyT13 for 24 hours. The lysates were prepared for immunoblotting and the blots were probed with anti-HA and anti-β-actin antibodies. (b) One hundred thousand NIH-3T3 cells infected with HA-HaloTag-HRas(G12V) or HA-HaloTag(D106A)-HRas(G12V) were plated in 10% FBS containing medium onto 10-cm plates. The next day, the medium was replaced with 1% FBS containing medium, along with vehicle or 1 μM HyT13. The media was refreshed every 2 days, and the plates were pictured on day 6. Bar, 5 mm. (c) Quantification of foci as described in (b). The number of foci/cm^2 was counted from three separate plates, with error bars representing SEM. […] Tumor size was measured daily, and the tumor volume was calculated. […]\nThe indicated cells were washed twice with cold PBS and the cells were lysed in lysis buffer (1×PBS, 1% NP-40, 1 mM EDTA, 40 mM HEPES) with protease inhibitors. […] The total protein concentration was determined by Bradford assay and 50 μg of protein was loaded onto an 8% Bis-Tris gel. […] The blots were processed by standard procedures with indicated antibodies, and the band intensities were quantified by ImageJ. […]"}, "[3]": {"test": "Maximum tolerated dose experiment / weight gain in nude mice", "assay_type": "in vivo", "text": "Nude mice were daily IP injected with indicated concentrations of HyT13 and were monitored for weight gain during the 14-day experiment. Shown is the percent weight gained during the 14-day period for each treatment group ±SEM. Each treatment group consisted of 7 mice.\nTo examine whether the HaloTag:HyT13 based system could be used in mouse models to relieve the H-RasG12V-driven tumor burden, we first evaluated the pharmacokinetics of HyT13. We performed a maximum tolerated dose experiment with HyT13 in nude mice at doses up to 100 mg/kg over a 14-day treatment regimen. […] Next, we sought to determine the serum bioavailability of HyT13 following injections. HyT13 was administered at 25 mg/kg by intraperitoneal (IP) injection into Swiss Webster mice and the serum was collected at 1 and 24 hours post-injection. At 1 hour post HyT13 administration the blood serum concentration was approximately 2 μM, and by 24 hours the HyT13 concentration had dropped to about 500 nM (FIG. 10). Based on our previous experiments in a cell culture setting, we speculated that these serum HyT13 concentrations would be sufficient to suppress H-RasG12V tumor formation in mice. To test this, we injected NIH-3T3 cells expressing HA-HaloTag-H-RasG12V into the flank of nude mice and on the same day started a daily treatment regimen of vehicle, 25 mg/kg HyT13 or 100 mg/kg HyT13. […]"}}, "note": "“Also recorded” adds a separate entry of the source.", "data": [{"molecule": "O=C(CC12CC3CC(CC(C3)C1)C2)NCCOCCOCCCCCCCl", "note": "[HyT13, 2-((3r,5r,7r)-Adamantan-1-yl)-N-(2-(2-((6-chlorohexyl)oxy)ethoxy)ethyl)acetamide]", "values": [{"measurement": "time to 50% degradation", "setting": "[1]; 1 μM HyT13", "value": "≤ 1.5", "unit": "h"}, {"measurement": "time to full degradation effect", "setting": "[1]; 1 μM HyT13", "value": "≤ 8", "unit": "h"}, {"measurement": "protein level after removal of compound", "setting": "[1]; 1 μM for 24 hours, then removed for 24 hours", "value": "recovered to half the starting levels"}, {"measurement": "concentration at which maximal degradation effect is achieved", "setting": "[1]; 24 hours, immunoblotting", "value": 100, "unit": "nM"}, {"measurement": "DC50", "setting": "[1]; read-out: IC50 of fusion protein degradation, 24 hours, Flp-In 293 cells", "value": 21, "unit": "nM"}, {"measurement": "degradation of HA-HaloTag(D106A)-H-RasG12V", "setting": "[2]", "value": "unaffected"}, {"measurement": "weight gain", "setting": "[3]; mice injected daily at 100 mg/kg for 14 days", "value": "gained weight normally"}, {"measurement": "toxicity / phenotype in mice", "setting": "[3]; nude mice, daily IP, doses up to 100 mg/kg, 14 days", "value": "No obvious phenotype was observed; also recorded: no observed toxicity"}]}]}
